Assay results from patent US20260000781A1, “FC CONJUGATES INCLUDING AN INHIBITOR OF CD73 AND USES THEREOF” (Cidara Therapeutics, Inc., priority 2022, published 2026).
Read-outs that look alike come from different tables or passages of the source.

Legend:
[1] = tested on: human PBMCs inhibited by AMP; test: PBMC activation assay by flow cytometry (rescue of AMP suppressed cells); type: cell-based
Protocol: (§1) Human PBMCs (StemCell Technologies cat no. 70025) prepared in ImmunoCult™—XF T cell Expansion medium (StemCell Technologies cat no. 10981) were seeded at 1×10^5 cells per well (100 μL of 1×10^6 cells/mL) in the presence or absence of T cell activator anti-CD3/CD28/CD2 (StemCell Technologies cat no. 10970) in 96 well round bottom plates (Corning cat no. 3788). Ten-fold serial dilutions of each test article was prepared, resulting in final concentrations ranging from 0.1 nM-10,000 nM. 50 μL of test article was added to the cells, followed by 50 μL of adenosine 5′ monophosphate (AMP; MilliporeSigma cat no. A1752) for a final concentration of 30 μM. Plates were incubated at 37° C. with 5% CO2 for 72 h. After 72 h the cells were centrifuged for 5 min at 300×g at 4° C. then washed twice with cell staining buffer (BioLegend cat no. 420201). Cells were incubated with Fc block (Unlabeled, Clone: 3070; BD Biosciences cat no. 5642220) for 10 min at 4° C. Cells were stained with anti-human CD25 antibody, clone 2A3, PE (StemCell Technologies cat no. 60153PE) for 20 min at 4° C. protected from light. Cells were washed twice with cell staining buffer and resuspended in 200 μL of cell staining buffer. Samples were acquired using a Cytek Northern Lights flow cytometry system. CD25^+ by flow cytometry was used as the readout to measure PBMC activation after AMP inhibition. Samples were analyzed using FlowJo version 10. Percent rescue […] was plotted using GraphPad Prism Version 6 and EC50 values were generated using nonlinear regression analysis for total PBMCs or CD8^+ T cells using CD25^+ as read-out or granzyme B^+.
as §1, with “test article were prepared, resulting” for “test article was prepared, resulting”, “nonlinear regression analysis.” for “nonlinear regression analysis for total PBMCs or CD8^+ T cells using CD25^+ as read-out or granzyme B^+.”
Human PBMCs (StemCell Technologies cat no. 70025) prepared in ImmunoCult™—XF T cell Expansion medium (StemCell Technologies cat no. 10981) were seeded at 1×10^5 cells per well (100 μL of 1×10^6 cells/mL) in the presence or absence of T cell activator anti-CD3/CD28/CD2 (StemCell Technologies cat no. 10970) in 96 well round bottom plates (Corning cat no. 3788). Ten-fold serial dilutions of each test article was prepared in medium (ranging from 4,000 nM-0.4 nM), resulting in final concentrations ranging from 1,000 nM-0.1 nM. 50 μL of test article was added to the cells, followed by 50 μL of adenosine 5′ monophosphate (AMP; MilliporeSigma cat no. A1752) for a final concentration of 30 μM. […]

CD73 = molecular target: T1, CD73 (Homo sapiens, UniProt P21589); test: Cell-free CD73 enzyme inhibition assay; type: biochemical; conditions: recombinant human CD73 0.1 ng/μL, AMP 100 μM, 25 min at 37° C. (FIG. 1A, 1B)
T1 sequence (P21589 27-549): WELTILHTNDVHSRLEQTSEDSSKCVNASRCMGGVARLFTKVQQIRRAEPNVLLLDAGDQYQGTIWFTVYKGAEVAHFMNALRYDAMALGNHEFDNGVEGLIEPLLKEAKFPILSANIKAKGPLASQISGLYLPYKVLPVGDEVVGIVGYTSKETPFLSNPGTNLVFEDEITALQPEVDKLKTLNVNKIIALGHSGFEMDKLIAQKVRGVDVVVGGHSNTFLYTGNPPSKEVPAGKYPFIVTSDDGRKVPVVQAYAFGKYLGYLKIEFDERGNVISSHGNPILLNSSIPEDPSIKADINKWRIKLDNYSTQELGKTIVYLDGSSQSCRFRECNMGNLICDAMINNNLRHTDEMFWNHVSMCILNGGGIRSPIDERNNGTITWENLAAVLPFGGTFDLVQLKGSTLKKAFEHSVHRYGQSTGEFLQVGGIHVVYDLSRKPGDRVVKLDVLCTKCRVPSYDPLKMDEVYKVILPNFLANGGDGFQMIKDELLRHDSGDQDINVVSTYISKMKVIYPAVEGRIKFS
Protocol: The cell-free CD73 enzyme inhibition assay was performed in a 96-well plate format using the CD73 Inhibitor Screening Assay Kit in accordance with the manufacturer's instructions (cat no. 72055, BPS Bioscience). […] Colorimetric detection reagent was then added (100 μL/well) and the free phosphate from the CD73 reaction was measured by reading the absorbance at 630 nm using the EnSpire multimode plate reader (PerkinElmer). Wells without test inhibitor (CD73 positive control) were included on each plate. Blank wells without test inhibitor and CD73 were subtracted from all wells. Percent CD73 inhibition versus inhibitor concentration was plotted using GraphPad Prism Version 8 and IC50's calculated using nonlinear regression analysis (Sigmoidal, 4 PL).
The cell-free CD73 enzyme inhibition assay was performed in a 96-well plate format using the CD73 Inhibitor Screening Assay Kit in accordance with the manufacturer's instructions (BPS Bioscience cat no. 72055). […] Colorimetric detection reagent was then added (100 μL/well) and the free phosphate from the CD73 reaction was measured by reading the absorbance at 630 nm using the EnSpire multimode plate reader (PerkinElmer). Wells without test inhibitor (CD73 positive control) were included on each plate. Blank wells without test inhibitor and CD73 were subtracted from all wells. Percent CD73 inhibition (y-axis) versus log10 inhibitor concentration (x-axis) was plotted using GraphPad Prism Version 8 and IC50's calculated using nonlinear regression analysis (Sigmoidal, 4 PL).

[2] = read-out: 30 μM AMP EC50, CD25+ as a read-out, total PBMCs, 72 h
[3] = 30 μM AMP, 72 h, read-out: CD8+CD25+ EC50
[4] = 30 μM AMP, 72 h, read-out: CD8+granzyme B+ EC50

`C[C@H](Nc1cc(Cl)nc2c1cnn2[C@@H]1O[C@H](COP(=O)(O)CP(=O)(O)O)[C@@H](O)[C@H]1O)c1ccccc1F` [AB680] was tested, and the EC50 ([1]; Homo sapiens, PBMC, read-out: 30 μM AMP EC50 [nM], CD25+ as a read-out, total PBMCs, 72 h) was 9 nM, the EC50 ([1]; Homo sapiens, PBMC, read-out: EC50 [nM] (median, n = 3) CD4+CD25+, 30 μM AMP, 72 h) was 10 nM and the EC50 ([1]; Homo sapiens, PBMC, read-out: EC50 [nM] (median, n = 3) CD8+CD25+, 30 μM AMP, 72 h) was 10 nM. The EC50 ([1]; Homo sapiens, PBMC, read-out: EC50 [nM] (median, n = 3) CD8+Granzyme B+, 30 μM AMP, 72 h) was 47 nM, the EC50 ([1]; Homo sapiens, PBMC, 30 μM AMP, 72 h, CD4+CD25+, CD8+CD25+, CD8+Granzyme B+, read-out: EC50 values (range over the read-outs)) was 10 to 54 nM and the EC50 ([1]; Homo sapiens, PBMC, 30 μM AMP, 72 h, read-out: CD8+CD25+ EC50) was 8.1 nM. The EC50 ([1]; Homo sapiens, PBMC, 30 μM AMP, 72 h, read-out: CD8+granzyme B+ EC50) was 1.4 nM.
In the case of `COC[C@](CO)(OC[C@H]1O[C@@H](n2ncc3c(NC4CCCC4)nc(Cl)nc32)[C@H](O)[C@@H]1O)P(=O)(O)O` [OP5244], the EC50 [1, 2] is reported as 8 nM and the EC50 ([1]; read-out: 30 μM AMP EC50, batches of Conjugate 172c, CD25+ as a read-out, 72 h (Table 13)) is reported as 17 nM.
`COC[C@](CO)(OC[C@H]1O[C@@H](n2ncc3c(NC4CCCC4)nc(Cl)nc32)[C@H](O)[C@@H]1O)P(=O)(O)O` [OP-5244] gave an EC50 [1, 3] of 5.9 nM, an EC50 [1, 4] of 1.4 nM and an EC50 ([1]; read-out: EC50 [nM] (median, n = 3) CD4+CD25+, 30 μM AMP, 72 h) of 7 nM. It also gave an EC50 ([1]; read-out: EC50 [nM] (median, n = 3) CD8+CD25+, 30 μM AMP, 72 h) of 7 nM, an EC50 ([1]; read-out: EC50 [nM] (median, n = 3) CD8+Granzyme B+, 30 μM AMP, 72 h) of 8 nM and an IC50 (CD73) of 1.3 nM.
In the case of `O=P(O)(O)COC[C@H]1O[C@@H](n2ncc3c(N4CC5(CCc6ccccc65)C4)nc(Cl)nc32)[C@H](O)[C@@H]1O` [SHR170008], the EC50 [1, 3] is reported as 598 nM, the EC50 [1, 4] is reported as 212 nM and the EC50 [1, 2] is reported as 374 nM. It also gave an IC50 (CD73) of 4.1 nM.
